Data: patent US6200985A, “Rapamycin derivatives” (Novartis AG, priority 1995, dated 2001)

Columns and labels:
[1] = molecular target: T1, recombinant human macrophilin-12 (FKBP-12) (Homo sapiens, UniProt P62942); assay: Macrophilin binding assay (MBA), competitive binding against immobilized FK-506; settings: inhibition of biot-MAP binding to immobilized FK-506
T1 construct: biotin (label)
Text: 3. Macrophilin binding assay (MBA)
Rapamycin and the structurally related immunosuppressant, FK-506, are both known to bind in vivo to macrophilin-12 (also known as FK-506 binding protein or FKBP-12), and this binding is thought to be related to the immunosuppressive activity of these compounds. […] In this assay, FK-506 coupled to BSA is used to coat microtiter wells. Biotinylated recombinant human macrophilin-12 (biot-MAP) is allowed to bind in the presence or absence of a test sample to the immobilized FK-506. After washing (to remove non-specifically bound macrophilin), bound biot-MAP is assessed by incubation with a streptavidin-alkaline phosphatase conjugate, followed by washing and subsequent addition of p-nitrophenyl phosphate as a substrate. The read-out is the OD at 405 nm. Binding of a test sample to biot-MAP results in a decrease in the amount of biot-MAP bound to the FK-506 and thus in a decrease in the OD405. A dilution series of the test sample allows determination of the concentration resulting in 50% inhibition of the biot-MAP binding to the immobilized FK-506 (IC50). The inhibitory capacity of a test sample is compared to the IC50 of free FK506 as a standard and expressed as a relative IC50 (i.e., IC50 test sample/IC50 -free FK506).

Balb/c spleen cells = assay: Mixed lymphocyte reaction (MLR), murine; type: cell-based, mouse; settings: inhibition of Balb/c spleen cell proliferation, 5 days co-incubation with irradiated CBA spleen cells; relative to rapamycin
Text: 1. Mixed lymphocyte reaction (MLR)
The Mixed Lymphocyte Reaction was originally developed in connection with allografts, to assess the tissue compatibility between potential organ donors and recipients, and is one of the best established models of immune reaction in vitro. […] The irradiated allogeneic cells induce a proliferative response in the Balb/c spleen cells which can be measured by labeled precursor incorporation into the DNA. […] The inhibitory capacity of the test sample may be compared to rapamycin and expressed as a relative IC50 (i.e. IC50 test sample/IC50 rapamycin).

[2] = tested on: interleukin-6 (IL-6)-dependent mouse hybridoma cell line; assay: IL-6 mediated proliferation (IL-6 PROL); type: cell-based; settings: inhibition of IL-6 dependent hybridoma proliferation, (3-H)thymidine incorporation; relative to rapamycin
Procedure: 2. IL-6 mediated proliferation (IL-6 PROL)
The capacity of the Compounds of formula I to interfere with growth factor, associated signalling pathways is assessed using an interleukin-6 (IL-6)-dependent mouse hybridoma cell line. The assay is performed in 96-well microtiter plates. […] Following a 66 hour incubation in the absence or presence of a test sample, cells are pulsed with 1 μCi (3-H)thymidine/well for another 6 hours, harvested and counted by liquid scintillation. (3-H)thymidine incorporation into DNA correlates with the increase in cell number and is thus a measure of cell proliferation. […] The inhibitory capacity of the test sample may be compared to rapamycin and expressed as a relative IC50 (i.e. test sample/IC50 rapamycin).

rat kidney allograft = assay: Chronic allograft rejection, rat kidney allograft model; type: in vivo; settings: per os, 0.5 to 2.5 mg/kg, 69-72 days starting day 53-64 after transplantation
Procedure: 10. Chronic Allogaft Rejection
The kidney of a male DA (RT1^a) rat is orthotopically transplanted into a male Lewis (RT1^l) recipient. In total 24 animals are transplanted. All animals are treated with cyclosporine A at 7.5 mg/kg/day per os for 14 days starting on the day of transplantation, to prevent acute cellular rejection. Contralateral nephrectomy is not performed. Each experimental group treated with a distinct dose of a compound of formula I or placebo comprises six animals.
Starting at day 53-64 after transplantation, the recipient animals are treated per os for another 69-72 days with a compound of formula I or receive placebo. At 14 days after transplantation animals are subjected to graft assessment by magnetic resonance imaging (MRI) with perfusion measurement of the kidneys (with comparison of the grafted kidney and the own contralateral kidney). This is repeated at days 53-64 after transplantation and at the end of the experiment. The animals are then autopsied. Rejection parameters such as MRI score, relative perfusion rate of the grafted kidney and histologic score of the kidney allograft for cellular rejection and vessel changes are determined and statistically analyzed.

[3] = tested on: myointimal proliferation in balloon-injured carotid artery; assay: Angioplasty (balloon catheterization of the carotid artery); type: in vivo; settings: rat, per os, daily dose 0.5 to 2.5 mg/kg, day -3 to day +14
Procedure: Under Isofluorane anaesthesia, a Fogarty 2F catheter is introduced into the left common carotid artery via the external carotid and inflated (distension=10 μl H2 O). The inflated balloon is withdrawn along the length of the common carotid three times, the latter two times whilst twisting gently to obtain a uniform de-endothelialization. The cathether is then removed, a ligature placed around the external carotid to prevent bleeding and the animals allowed to recover.
2 groups of 12 RoRo rats (400 g, approximately 24 weeks old) are used for the study: one control group and one group receiving the compound to be tested. The rats are fully randomized during all handling, experimental procedures and analysis.
The compound to be tested is administered p.o. (gavage) starting 3 days before balloon injury (day -3) until the end of the study, 14 days after balloon injury (day +14). Rats are kept in individual cages and allowed food and water ad libidum. […]
Sections 1-2 μm thick are cut from the middle section of each carotid with a hard metal knife on a rotary microtome and stained for 2 min with Giemse-stain. About 5 sections from each carotid are thus prepared and the cross-sectional areal of the media, neointima and the lumen morphometrically evaluated by means of an image analysis system (MCID, Toronto, Canada).

T1 sequence (P62942 whole entry): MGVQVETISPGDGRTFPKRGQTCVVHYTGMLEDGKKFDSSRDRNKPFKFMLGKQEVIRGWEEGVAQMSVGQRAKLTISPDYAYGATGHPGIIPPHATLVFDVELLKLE

## CO[C@H]1C[C@@H]2CC[C@@H](C)[C@@](O)(O2)C(=O)C(=O)N2CCCC[C@H]2C(=O)O[C@H]([C@H](C)C[C@@H]2CC[C@@H](OCCO)[C@H](OC)C2)C[C@H](O)[C@H](C)/C=C(\C)[C@@H](O)[C@@H](OC)C(=O)[C@H](C)C[C@H](C)/C=C/C=C/C=C/1C [Example 5, (32S)-dihydro40-(2-hydroxy)ethyl-rapamycin]
[1]
  relative IC50 (IC50 test sample/IC50 free FK506): 25

## CO[C@H]1C[C@@H]2CC[C@@H](C)[C@@](O)(O2)C(=O)C(=O)N2CCCC[C@H]2C(=O)O[C@H]([C@H](C)C[C@@H]2CC[C@@H](O)[C@H](OC)C2)CC[C@H](C)/C=C(\C)[C@@H](O)[C@@H](OC)C(=O)[C@H](C)C[C@H](C)/C=C/C=C/C=C/1C [Example 1, 32-Deoxorapamycin]
Balb/c spleen cells
  relative IC50 (IC50 test sample/IC50 rapamycin): 0.3
[2]
  relative IC50 (test sample/IC50 rapamycin): 0.2
[1]
  relative IC50 (IC50 test sample/IC50 free FK506): 1
Rat kidney allograft
  rejection parameters (MRI score, relative perfusion rate of grafted kidney, histologic score): reduction in all above mentioned rejection parameters
[3]
  myointimal proliferation: inhibit myointimal proliferation

## CCC#CCO[C@H]1C[C@@H]2CC[C@@H](C)[C@@](O)(O2)C(=O)C(=O)N2CCCC[C@H]2C(=O)O[C@H]([C@H](C)C[C@@H]2CC[C@@H](O)[C@H](OC)C2)C[C@H](O)[C@H](C)/C=C(\C)[C@@H](O)[C@@H](OC)C(=O)[C@H](C)C[C@H](C)/C=C/C=C/C=C/1C [Example 2, 16-pent-2-ynyloxy-32(S)-dihydro rapamycin]
Balb/c spleen cells
  relative IC50 (IC50 test sample/IC50 rapamycin): 0.08
[2]
  relative IC50 (test sample/IC50 rapamycin): 0.09
[1]
  relative IC50 (IC50 test sample/IC50 free FK506): 2.8
Rat kidney allograft
  rejection parameters (MRI score, relative perfusion rate of grafted kidney, histologic score): reduction in all above mentioned rejection parameters
[3]
  myointimal proliferation: inhibit myointimal proliferation
